Test results as given in article PMC9860869, “First Phytochemical Profiling and In-Vitro Antiprotozoal Activity of Essential Oil and Extract of Plagiochila porelloides” (Molecules, 2023).

Columns and labels:
[1] = Cytotoxicity assay on WI38 cells; format: cell-based; settings: human, WI-38 normal fibroblast cells, pure compound (positive control), read-out: Cytotoxicity IC50 ± SD WI38
Experimental: (§1) Trypanosoma brucei brucei (strain 427) bloodstream forms were cultured in vitro in HMI9 medium containing 10% heat-inactivated fetal bovine serum. Leishmania mexicana mexicana promastigotes (MHOM/BZ/84/BEL46) were cultivated in vitro in a semi-defined medium (SDM-79) supplemented with 15% heat-inactivated fetal bovine serum. The human normal fibroblast cell line, WI-38, was cultivated in vitro in DMEM medium containing 4 mM L-glutamine, 1 mM sodium pyruvate supplemented with 10% heat-inactivated fetal bovine serum and penicillin–streptomycin (100 UI/mL to 100 µg/mL). All cells were incubated in a humidified atmosphere with 5% CO2 at 37 °C except the Leishmania promastigotes which were incubated at 28 °C.
(§2) The cytotoxicity of the essential oil and extracts on WI-38 and J774 cells was evaluated as previously described from the same stock solutions [45].

[2] = Cytotoxicity assay on J774 cells; format: cell-based, murine; settings: mouse, J774 macrophage-like cells, pure compound (positive control), read-out: Cytotoxicity IC50 ± SD J774
Experimental: as §2

[3] = tested on: Leishmania mexicana mexicana promastigotes; experiment: In vitro test for antileishmanial activity; format: cell-based; settings: Lmm promastigotes, pure compound (positive control), read-out: Antiprotozoal assay IC50 ± SD Lmm
Experimental: as §1
(§3) The in vitro test was performed as described previously. Pentamidine isethionate salt (a commercial antileishmanial drug) and suramine sodium salt (a commercial antitrypanosomal drug) were used as positive controls in all experiments with an initial concentration of 10 µg/mL. First, stock solutions of crude extracts and compounds were prepared in DMSO at 20 mg/mL (and 2 mg/mL for positive controls). The solutions were further diluted in medium to give 0.2 mg/mL stock solutions. Essential oil and extracts were tested in eight serial three-fold dilutions (final concentration range: 100–0.05 µg/mL) in 96-well microtiter plates. All tests were repeated three times in duplicate.

[4] = tested on: Trypanosoma brucei brucei (bloodstream forms); experiment: In vitro test for antitrypanosomal activity; format: cell-based; settings: Tbb bloodstream forms, pure compound (positive control), read-out: Antiprotozoal assay IC50 ± SD Tbb
Experimental: as §1, §3

In the case of `CC[C@@]1(O)C(=O)OCc2c1cc1n(c2=O)Cc2cc3ccccc3nc2-1` [Camptothecin], the IC50 [1] is reported as 31 ± 2 nM and the IC50 [2] is reported as 10 ± 1 nM.

For `N=C(N)c1ccc(OCCCCCOc2ccc(C(=N)N)cc2)cc1` [Pentamidine], the IC50 [3] was 70 ± 4 nM.

In the case of `Cc1ccc(C(=O)Nc2ccc(S(=O)(=O)O)c3cc(S(=O)(=O)O)cc(S(=O)(=O)O)c23)cc1NC(=O)c1cccc(NC(=O)Nc2cccc(C(=O)Nc3cc(C(=O)Nc4ccc(S(=O)(=O)O)c5cc(S(=O)(=O)O)cc(S(=O)(=O)O)c45)ccc3C)c2)c1` [Suramine], the IC50 [4] is reported as 30 ± 4 nM.
